Assay results published in the supplement of paper PMC4862054.

How the values were obtained:
Details in all cases: 72 h
[1] = tested on: CAL-120
Outline: (§1)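 EC50 was fitted from dose-response curves and censored at the highest concentration tested. To build those curves, breast cancer cell lines (20 µl suspension) were seeded into 384-well plates containing compound at 5 concentrations in 10-fold steps over a compound-specific 10,000-fold range and incubated for 72 h. Readouts were CellTox Green fluorescence (485/520 nm) for cell death and then CellTiter-Glo luminescence for viability, with each plate normalised to 0.1 % DMSO and a positive kill control.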

[2] = tested on: MDA-MB-453
Outline: (§2)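 The reported EC50 was fitted from percent-inhibition dose-response curves and censored at the highest concentration. Breast cancer cell lines (20 µl suspension) were added to 384-well plates containing compound in 5 µl medium and incubated 72 h, and viability was read with 2.5 µl CellTiter-Blue over 2 h at 37 °C at 560/590 nm. Each plate was normalised to vehicle and a positive kill control and checked by Z'-factor, and rows with zero drug sensitivity score were dropped.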

[3] = tested on: BT-549
Outline: as §2

[4] = tested on: CAL-148
Outline: as §2

[5] = tested on: MDA-MB-231
Outline: as §2

[6] = tested on: BT-474
Outline: as §1

[7] = tested on: CAL-51
Outline: as §1

[8] = tested on: MDA-MB-468
Outline: as §1

[9] = tested on: DU-4475
Outline: as §2

[10] = tested on: HDQ-P1
Outline: as §2

[11] = tested on: CAL-120; remark: listed apart in the source
Outline: as §2

[12] = tested on: HCC1143
Outline: as §2

[13] = tested on: HCC1599
Outline: as §2

[14] = tested on: MDA-MB-468; remark: listed apart in the source
Outline: as §2

[15] = tested on: SK-BR-3
Outline: as §2

[16] = tested on: CAL-85-1
Outline: as §2

[17] = tested on: BT-474; remark: listed apart in the source
Outline: as §2

[18] = tested on: HCC1937
Outline: as §1

[19] = tested on: HDQ-P1; remark: listed apart in the source
Outline: as §1

[20] = tested on: MCF-10A
Outline: as §1

[21] = tested on: MDA-MB-231; remark: listed apart in the source
Outline: as §1

[22] = tested on: MDA-MB-453; remark: listed apart in the source
Outline: as §1

[23] = tested on: MFM-223
Outline: as §1

[24] = tested on: CAL-51; remark: listed apart in the source
Outline: as §2

[25] = tested on: Hs578T
Outline: as §2

[26] = tested on: MFM-223; remark: listed apart in the source
Outline: as §2

[27] = tested on: BT-549; remark: listed apart in the source
Outline: as §1

[28] = tested on: MDA-MB-436
Outline: as §1

[29] = tested on: HCC1937; remark: listed apart in the source
Outline: as §2

[30] = tested on: MDA-MB-436; remark: listed apart in the source
Outline: as §2

SMILES | EC50, CellTiter-Glo [1] [µM] | EC50, CellTiter-Blue viability [2] [µM] | EC50, CellTiter-Blue viability [3] [µM] | EC50, CellTiter-Blue viability [10] [µM] | EC50, CellTiter-Blue viability [13] [µM] | EC50, CellTiter-Blue viability [14] [µM] | EC50, CellTiter-Blue viability [15] [µM] | EC50, CellTiter-Blue viability [29] [µM] | other results
C[C@H]1C[C@@H]2[C@H]([C@@H](O)C[C@@]3(C)[C@H]2CC[C@]3(O)C(=O)CO)[C@@]2(C)C=CC(=O)C=C12 [Methylprednisolone] | 0.0235 | 0.0277 | 0.52 |  |  |  |  |  | 
C1CN1c1nc(N2CC2)nc(N2CC2)n1 [Triethylenemelamine] |  | 9.22 | 9.4 |  |  |  |  |  | EC50, CellTiter-Blue viability [4]: 3.22 µM; EC50, CellTiter-Blue viability [5]: 0.698 µM
CCc1cncnc1N1CCN(Cc2nc3ccc(C(F)(F)F)cc3[nH]2)CC1 | > 10 |  |  |  |  |  |  |  | EC50, CellTiter-Glo [6]: > 10 µM; EC50, CellTiter-Glo [7]: 0.543 µM; EC50, CellTiter-Glo [8]: 1.35 µM
CC[C@H](Nc1ncnc2[nH]cnc12)c1nc2cccc(F)c2c(=O)n1-c1ccccc1 [CAL-101] |  | 2.18 | 2.24 | 5.25 | 0.0942 | 2.38 | 2.16 |  | EC50, CellTiter-Blue viability [9]: 5.56 µM; EC50, CellTiter-Blue viability [11]: 8.28 µM; EC50, CellTiter-Blue viability [12]: 2.28 µM
C=CC(=O)N1CCC[C@@H](n2nc(-c3ccc(Oc4ccccc4)cc3)c3c(N)ncnc32)C1 |  | 0.0185 |  | 0.407 |  | 0.0711 | 0.00882 |  | EC50, CellTiter-Blue viability [16]: 0.849 µM; EC50, CellTiter-Blue viability [17]: 0.0147 µM
COc1cc2nccc(Oc3ccc(NC(=O)Nc4cc(C)on4)c(Cl)c3)c2cc1OC [Tivozanib] |  | 2.32 | 7.35 | 0.774 | 4.65 |  | 4.27 |  | EC50, CellTiter-Glo [18]: > 10 µM; EC50, CellTiter-Glo [19]: 3.82 µM; EC50, CellTiter-Glo [20]: 8.73 µM; EC50, CellTiter-Glo [21]: 8.5 µM; EC50, CellTiter-Glo [22]: 5.05 µM; EC50, CellTiter-Glo [23]: 1.82 µM; EC50, CellTiter-Blue viability [24]: 7.8 µM; EC50, CellTiter-Blue viability [17]: 2.5 µM; EC50, CellTiter-Blue viability [11]: 4.61 µM; EC50, CellTiter-Blue viability [25]: 4.59 µM; EC50, CellTiter-Blue viability [5]: 6.79 µM; EC50, CellTiter-Blue viability [26]: 0.344 µM
Nc1nc(F)nc2c1ncn2[C@@H]1O[C@H](CO)[C@@H](O)[C@@H]1O [Fludarabine] | > 10 |  |  |  |  |  | 2.12 | 1.32 | EC50, CellTiter-Glo [27]: 5.92 µM; EC50, CellTiter-Glo [28]: 7.39 µM
O=C(O)C(=O)O.[NH-][C@@H]1CCCC[C@H]1[NH-].[Pt+2] [Oxaliplatin] |  | 7.47 | 3.55 |  | 0.82 | 3.25 | 9.66 | 4.81 | EC50, CellTiter-Blue viability [4]: 5.67 µM; EC50, CellTiter-Blue viability [24]: 9.11 µM; EC50, CellTiter-Blue viability [9]: 9.22 µM; EC50, CellTiter-Blue viability [12]: 8.31 µM; EC50, CellTiter-Blue viability [30]: 4.31 µM
Cc1ccc(-c2cc(C(F)(F)F)nn2-c2ccc(S(N)(=O)=O)cc2)cc1 [Celecoxib] |  | 7.69 |  | 0.0675 |  |  |  | 0.329 | EC50, CellTiter-Blue viability [30]: 0.183 µM
